Assay results as given in US10793561B2, “1,8-naphthyridinone compounds and uses thereof” (NUVATION BIO INC., priority 2017, dated 2020).

How the values were obtained:
adenosine A3 receptor = adenosine A3 receptor (Homo sapiens (Human), UniProt P0DMS8); assay: Radioligand binding competition assay, adenosine A3 receptor (CHO-K1-A3 cell membranes); conditions: 300 nM compound
Description: (§1) Binding of selected compounds to the adenosine A1, A2A, A2B, and A3 receptors was tested using a binding competition assay.
(§2) The general protocol for the radioligand binding competition assay was as follows. Competition binding was performed in duplicate in the wells of a 96 well plate (Master Block, Greiner, 786201) containing binding buffer (optimized for each receptor), membrane extracts (amount of protein/well optimized for each receptor), radiotracer (final concentration optimized for each receptor), and test compound. Nonspecific binding was determined by co-incubation with 200-fold excess of cold competitor. The samples were incubated in a final volume of 0.1 mL at 25° C. for 60 minutes and then filtered over filter plates. Filters were washed six times with 0.5 mL of ice-cold washing buffer (optimized for each receptor) and 50 μL of Microscint 20 (Packard) were added on each filter. The filter plates were sealed, incubated 15 min on an orbital shaker and scintillation counted with a TopCount for 30 sec/filter.
For the adenosine A3 radioligand binding competition assay, the following reagents were used:
(§3) CHO-K1-A3 cell membranes, 1.5 μg/well; a binding buffer comprising HEPES 25 mM pH 7.4, MgCl2 5 mM, CaCl2 1 mM, 0.5% BSA; a wash buffer comprising HEPES 25 mM pH 7.4, MgCl2 5 mM, CaCl2 1 mM; a Unifilter GF/C—treated for 2 h with 0.5% BS; and 0.4 nM of ^125I-AB-MECA as the tracer. The results of the binding assay are shown in Table B1-1 and are shown as percent residual binding at a given concentration. Percent of residual binding means binding of a compound in the presence of competitor normalized to the amount of binding in the absence of competitor. […] For example, compound 1 strongly bound to A2A (30% residual binding at a concentration of 100 nM), A1 (−3% residual binding at 300 nM) and A2B, (−9% residual binding at 300 nM) but weakly bound to A3 (96% residual binding at 300 nM).

adenosine A2B receptor = adenosine A2B receptor (Homo sapiens (Human), UniProt P29275); assay: Radioligand binding competition assay, adenosine A2B receptor (HEK-293-A2b cell membranes); conditions: 300 nM compound
Chain of adenosine A2B receptor (P29275 whole entry): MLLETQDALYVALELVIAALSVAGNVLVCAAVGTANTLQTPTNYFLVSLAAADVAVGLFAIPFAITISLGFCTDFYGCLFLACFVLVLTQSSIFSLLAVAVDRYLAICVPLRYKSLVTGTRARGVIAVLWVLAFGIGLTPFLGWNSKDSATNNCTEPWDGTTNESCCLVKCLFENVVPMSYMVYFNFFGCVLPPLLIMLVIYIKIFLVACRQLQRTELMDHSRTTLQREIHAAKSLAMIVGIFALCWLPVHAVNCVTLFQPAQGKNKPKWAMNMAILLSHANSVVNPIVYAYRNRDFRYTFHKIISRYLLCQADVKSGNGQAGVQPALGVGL
Description: as §1, §2
Similarly, the following reagents were used for the adenosine A2B radioligand binding competition assay: HEK-293-A2b cell membranes, 20 μg/well, preincubated 30 min at RT with […] Adenosine Deaminase; a binding buffer comprising HEPES 10 mM pH7.4, EDTA 1 mM, 0.5% BSA; a wash buffer comprising HEPES 10 mM pH7.4, EDTA 1 mM; a Unifilter GF/C—treated for 2 h with 0.5% PEI; and 10 nM ^3H-DPCPX as the tracer.
as §3

adenosine A2A receptor [1] = target: T1, adenosine A2A receptor (Homo sapiens (Human), UniProt P29274); assay: Radioligand binding competition assay, adenosine A2A receptor
T1 sequence (P29274 whole entry): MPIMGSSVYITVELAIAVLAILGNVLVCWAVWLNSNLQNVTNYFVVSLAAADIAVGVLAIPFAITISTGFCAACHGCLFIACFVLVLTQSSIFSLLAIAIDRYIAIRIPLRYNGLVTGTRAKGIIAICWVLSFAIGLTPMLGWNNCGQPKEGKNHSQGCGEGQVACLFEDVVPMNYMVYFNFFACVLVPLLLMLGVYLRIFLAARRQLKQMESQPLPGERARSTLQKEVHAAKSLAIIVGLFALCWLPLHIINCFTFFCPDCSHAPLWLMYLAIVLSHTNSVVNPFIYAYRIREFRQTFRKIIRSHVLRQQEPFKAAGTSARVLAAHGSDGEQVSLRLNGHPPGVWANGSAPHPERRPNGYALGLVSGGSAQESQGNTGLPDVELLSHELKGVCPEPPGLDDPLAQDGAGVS
Description: as §1, §2
For the adenosine A2A receptor radioligand binding assay, the following modifications were made to the general protocol. GF/C filters (Perkin Elmer, 6005174), presoaked in 0.01% Brij for 2 h at room temperature were used. Filters were washed six times with 0.5 mL of ice-cold washing buffer (50 mM Tris pH 7.4) and 50 μL of Microscint 20 (Packard) was added in each well. The plates were then incubated for 15 min on an orbital shaker and then counted with a TopCount™ for 1 min/well.
Another radioligand binding assay was used to evaluate the binding affinity for the adenosine A2A receptor assay was performed in duplicate in the wells of a 384 plate. Assay buffer contained DPBS 500 mM, MgCl2 0.1 mM, and 1% DMSO. Membrane-bead suspension was prepared by mixing 25.98 μL of human adenosine A2A membrane preparation (Perkin Elmer, RBHA2AM400UA) at 33.4 pg/mL, 28 μL of ADA at 20 pg/mL, and 932 μL of SPA beads at 3.33 mg/mL) and incubated the mixture for 20 min at room temperature. Mixed 20 μL of radiotracer (^3H-SCH 58261) at 15 nM to each well containing test articles at various concentrations and centrifuge the plate at 1000 rpm for 1 minute. Added 30 μL of the membrane-bead suspension to each well. Sealed the plates and incubated for 1 hr at room temperature with vigorous mixing on a plate mixer. Plates were read on Microbeta^2 (Perkin Elmer, 2450-0010).
as §3

adenosine A2A receptor [2] = target: T1, adenosine A2A receptor; assay: cAMP assay in HEK-293 cells expressing human recombinant adenosine A2A receptor; assay type: cell-based; conditions: HEK293; 100 nM compound; read-out: A2a cAMP % inh @ 100 nM
Description: The functional activity of compounds was tested using one of the two assays to detect the present of cAMP. Activation of G-protein coupled receptors (such as A2A) results in activation of adenylcyclase which converts ATP into cAMP which is used as a downstream signaling molecule. Therefore, molecules which act as GPCR (or specifically A2A receptor) antagonists cause a decrease in intracellular cAMP concentration.
Both assays used HEK-293 cells expressing human recombinant adenosine A2A receptor were grown prior to the test in media without antibiotic. Assay 1: The cells were detached by gentle flushing with PBS-EDTA (5 mM EDTA), recovered by centrifugation and suspended in assay buffer (KRH: 5 mM KCl, 1.25 mM MgSO4, 124 mM NaCl, 25 mM HEPES, 13.3 mM Glucose, 1.25 mM KH2PO4, 1.45 mM CaCl2, 0.5 g/L BSA, supplemented with Rolipram).
12 μL of cells were mixed with 6 μL of the test compound at increasing concentrations and then incubated for 10 min. Thereafter 6 μL of the reference agonist was added at a final concentration corresponding to the historical EC80. The plates were then incubated for 30 min at room temperature. After addition of the lysis buffer and 1 hour incubation, cAMP concentrations were estimated, according to the manufacturer specification, with the HTRF® kit.
Assay 2: 100 nL of test articles at 100× of final concentration were transferred to assay plate by Echo. Cells were washed twice with 5 mL of PBS […]. After aspirating the PBS and adding 1.5 mL versine, cells were incubated at 37° C. for 2-5 min. After centrifugation, 4 mL of medium was added and adjusted cell density to 5,000 cells/well with stimulation buffer. 10 μL of cells were aliquoted to the assay plate, centrifuged at 1000 rpm for 1 minute, and incubated for 60 minutes at room temperature. 5 μL 4× Eu-cAMP tracer solution and 5 μL 4× Ulight™-anti-cAMP solution were added to assay plate, followed by centrifugation and 60-minute incubation at room temperature. Plates were read on EnVision.

adenosine A1 receptor = adenosine A1 receptor (Homo sapiens (Human), UniProt P30542); assay: Radioligand binding competition assay, adenosine A1 receptor (CHO-K1-A1 cell membranes); conditions: 300 nM compound
Chain of adenosine A1 receptor (P30542 whole entry): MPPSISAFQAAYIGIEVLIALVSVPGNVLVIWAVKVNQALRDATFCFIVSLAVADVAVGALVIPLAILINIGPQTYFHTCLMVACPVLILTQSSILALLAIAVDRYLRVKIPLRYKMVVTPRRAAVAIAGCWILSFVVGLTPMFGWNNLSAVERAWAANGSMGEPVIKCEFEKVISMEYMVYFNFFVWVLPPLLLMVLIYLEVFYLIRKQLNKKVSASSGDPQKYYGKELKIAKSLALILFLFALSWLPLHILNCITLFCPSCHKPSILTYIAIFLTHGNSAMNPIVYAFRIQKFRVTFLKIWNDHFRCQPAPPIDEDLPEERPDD
Description: as §1, §2
For the adenosine A1 radioligand binding competition assay, a similar procedure was used except that the following reagents were used: CHO-K1-A1 cell membranes; binding buffer comprising HEPES 25 mM pH 7.4, MgCl2 5 mM, CaCl2 1 mM, NaCl 100 mM, saponin 10 µg/mL; wash buffer comprising HEPES 25 mM pH 7.4, MgCl2 5 mM, CaCl2 1 mM, NaCl 100 mM; Unifilter GF/B—treated for 2 h with 0.5% PEI was the filter; and 1.6 nM of ^3H-DPCPX was the tracer.
as §3

Chain of adenosine A3 receptor (P0DMS8 whole entry): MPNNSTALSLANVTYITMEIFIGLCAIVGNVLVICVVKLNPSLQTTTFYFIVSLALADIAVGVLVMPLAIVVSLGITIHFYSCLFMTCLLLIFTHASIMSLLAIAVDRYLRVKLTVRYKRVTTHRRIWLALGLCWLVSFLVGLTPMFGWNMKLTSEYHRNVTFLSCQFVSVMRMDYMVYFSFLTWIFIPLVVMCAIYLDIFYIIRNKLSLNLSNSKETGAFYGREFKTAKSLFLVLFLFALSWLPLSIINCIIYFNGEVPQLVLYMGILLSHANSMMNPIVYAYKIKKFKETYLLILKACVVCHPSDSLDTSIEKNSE

SMILES: O=c1cc[nH]c2nc(-c3ccccc3)c(-c3ccc4[nH]cnc4c3)cc12 [Compound No. 1.7, 6-(1H-benzo[d]imidazol-5-yl)-7-phenyl-1,8-naphthyridin-4(1H)-one]
- Radioligand binding competition assay % residual binding @ 300 nM (A3) (adenosine A3 receptor): 84%
- Radioligand binding competition assay % residual binding @ 300 nM (A2b) (adenosine A2B receptor): 0%
- A2A radioligand binding competition assay % residual binding @ 100 nM (adenosine A2A receptor [1]; 100 nM compound): 52%
- A2A radioligand binding competition assay % residual binding @ 300 nM (adenosine A2A receptor [1]; 300 nM compound): 33%
- A2A radioligand binding competition assay % residual binding @ 1000 nM (adenosine A2A receptor [1]; 1000 nM compound): 21%
- A2A radioligand binding competition assay % residual binding @ 3000 nM (adenosine A2A receptor [1]; 3000 nM compound): 18%
- inhibition at 0.1 µM (adenosine A2A receptor [2]): 81%
- Radioligand binding competition assay % residual binding @ 300 nM (A1) (adenosine A1 receptor): 7%
